Experimental findings from paper PMC9486805, “Identification of a Phage Display-Derived Peptide Interacting with the N-Terminal Region of Factor VII Activating Protease (FSAP) Enables Characterization of Zymogen Activation” (ACS Chemical Biology, 2022) are described below.

In test [1] the test system is Factor Xa. The experiment in a line: Specificity: factor Xa. The test is classed as biochemical. As to conditions: Factor Xa 20 nM; peptide 0-50 μM; S-2765 (Fig S7). Here is the method:
Fig S7. […]
(§1) Bend, IN, USA) except plasminogen and FSAP, which were isolated in house; and pro-uPA was from Grünenthal (Stolberg, Germany). All chromogenic substrates were from Hyphen Biomed (Neuville Sur Oise, France). Experiments were carried out in TBS with Tween-20 (0.1 % wt/ vol) BSA (0.3% wt/vol) and CaCl2 (2 mM). Absorbance at 405 nm was measured over time and the enzyme activity is depicted was measured in duplicates (mean + or -range) and similar results were obtained in 3

For test [2], the system named is uPA. The test is described as follows: Specificity: uPA. As to conditions: uPA 20 nM; peptide 0-50 μM; PNAPEP 1344 (Fig S7). The format is biochemical. Here is the method:
Fig S7. […]
(§2) µM). Pro-uPA (100 nM) and uPA (20 nM) with PNAPEP 1344 (250 µM). Factor X (50 […]
as §1

The subject of test [3] is prothrombin. The test is described as follows: Specificity towards pro-enzymes: prothrombin. As to conditions: prothrombin 100 nM; peptide 0-50 μM; CS01 (Fig S7). The test is classed as biochemical. The method, then:
Fig S7. […]
Pro-thrombin (100 nM) and thrombin (20 nM) […]
as §1

In test [4] the test system is pro-urokinase. The test is described as follows: Specificity towards pro-enzymes: pro-urokinase. The format is biochemical. Conditions: pro-uPA 100 nM; peptide 0-50 μM; PNAPEP 1344 (Fig S7). Here is the method: Fig S7. […]
as §2, §1

The subject of test [5] is plasminogen. The experiment in a line: Specificity towards pro-enzymes: plasminogen. The test is classed as biochemical. As to conditions: plasminogen 50 nM; peptide 0-50 μM; CS41; duplicates, 3 experiments (Fig S7). The method, then: Fig S7. […]
as §1

Test [6] deals with factor XII. The experiment in a line: Specificity towards pro-enzymes: factor XII. The format is biochemical. As to conditions: Factor XII 100 nM; peptide 0-50 μM; CS31 (Fig S7). Here is the method:
Fig S7. Specificity of NNKC9/41 towards other pro-enzymes: Zymogens and their respective active enzymes were incubated with NNKC9/41 or Ser-Ser linear peptide (0-50 μM) and the enzyme activity was monitored using respective chromogenic substrates. Activity of Factor XII(100 nM) and Factor XIIa (20 nM) was measured with the substrate CS31 (1000 µM). Pro-thrombin (100 nM) and thrombin (20 nM) […]
as §1

In test [7] the test system is extrinsic pathway of coagulation. The test is described as follows: Plasma clotting assay, diluted prothrombin time (dPT). The test is classed as biochemical, human. Conditions: prothrombin-deficient citrated plasma 1:5, 10 mM CaCl2; peptide 0–25 μM, 60 min 37 °C; three experiments (Fig 6B). The method, then:
Figure 6 Pro-FSAP activation and clotting in plasma by NNKC9/41: (A) citrate plasma (1:12 dilution) from donors with WT/WT, WT/MI, and MI/MI genotypes and WT-FSAP-deficient plasma (FSAP-DP) were compared. Substrate turnover was monitored after addition of NNKC9/41 or the Ser–Ser linear peptide (25 μM each). Results are shown as mean + range of duplicate wells. (B) Pooled prothrombin-deficient citrated plasma (1:5 dilution) was recalcified with 10 mM CaCl2 and incubated with NNKC9/41 or scrambled control peptide (0–25 μM each) for 60 min at 37 °C in the presence or absence of the FSAP-inhibitory MA-FSAP-38C7 (5 μg/mL). Initiation of clotting was achieved by adding the tissue factor/phospholipid and prothrombin complex concentrate. Clotting time was measured as diluted prothrombin time (dPT) in seconds. Data are the mean of three independent experiments. […]
Prothrombin-deficient citrated pool plasma (Haemochrom Diagnostica, diluted 1:5 in HBS, pH 7.4) was recalcified with 10 mM CaCl2 and incubated with peptides for 60 min at 37 °C in the presence or absence of the FSAP-inhibitory MA-FSAP-38C7 (5 μg/mL). […] Clot formation was measured optically at 405 nm in a plate reader (Tecan, Crailsheim, Germany). The time from starting the reaction to 50% maximum clot turbidity was measured as diluted prothrombin time (dPT) in seconds.

The subject of test [8] is factor X. The test is described as follows: Specificity towards pro-enzymes: factor X. As to conditions: Factor X 50 nM; peptide 0-50 μM; S-2765 (Fig S7). The test is classed as biochemical. The method, then:
Fig S7. […]
as §1

The subject of test [9] is plasmin. The test is described as follows: Specificity: plasmin. The format is biochemical. Conditions: plasmin 20 nM; peptide 0-50 μM; CS41 (Fig S7). Here is the method: Fig S7. […]
as §1

As for CRGAMWMYKRC [NNKC9/41], the effect on activity result in test [1], in [2], in test [3], in test [4], in test [5] and in test [6] was “did not influence the activity” each time. Moreover, the effect on activity result in [8] and in [9] was “did not influence the activity” each time. Also, the “clotting time (diluted prothrombin time)” value in test [7] is “significant effect on lowering the clotting time”.
